Measured values as given in patent US10029993B2, “Disubstituted 1, 2, 4-triazine compound” (MITSUBISHI TANABE PHARMA CORPORATION, priority 2014, dated 2018).

These compounds were tested against human CYP11B2 (Homo sapiens (Human), UniProt P19099) (assay: Inhibitory effect on hCYP11B2 (aldosterone production by mitochondrial fraction of V79 cells stably expressing human CYP11B2, HTRF)). Conditions: 0.5 μmol/L deoxycorticosterone, 150 μmol/L NADPH, 1.5-2 hours at room temperature.
Format: biochemical
Method: Experimental Example 1 (Inhibitory Effect on hCYP11B2)
The pcDNA3.1-human CYP11B2 plasmid was transfected into a Chinese hamster lung fibroblast V79 cell line to produce a cell line stably expressing human CYP11B2 gene.
The cells were cultured and grown in the Dulbecco's modified Eagle's/Ham's medium supplemented with 10% fetal bovine serum and 1% G418 disulfate solution under the environment of 37° C., 95% air, and 5% CO2, and the grown cells were harvested.
Then, the cells were fractionated to obtain mitochondria by reference to a method described in Chabre et al. JCE 86 M 85 (11) 4060-68, 2000. In particular, the cells suspended in a 5 mmol/L Tris-HCl buffer (pH 7.4) containing 250 mmol/L sucrose were homogenized in a Teflon (Registered Trademark) Potter Elvehjem homogenizer, and then the suspension was centrifuged (800×g, 15 min.). The supernatant was separated and again centrifuged (10000×g, 15 min.) to obtain a pellet (mitochondrial fraction).
The mitochondrial fraction diluted with a buffer containing 10 mmol/L KH2PO4, 10 mmol/L Tris, 20 mmol/L KCl, 25 mmol/L sucrose, 5 mmol/L MgCl2, and 0.05% bovine serum albumin was dispensed to a 96-well plate. 0.5 μmol/L Deoxycorticosterone, 150 μmol/L NADPH and a compound of each concentration were added to each well, and incubated for 1.5-2 hours at room temperature to produce aldosterone. An amount of the produced aldosterone in the incubated solution was determined by using HTRF (Homogeneous Time Resolved Fluorescence) method.
IC 50 (nmol/L) was calculated by analyzing the aldosterone production inhibition rate (%) of each concentration of compounds by non-linear regression to a logistic curve.

Chain of human CYP11B2 (P19099 25-503): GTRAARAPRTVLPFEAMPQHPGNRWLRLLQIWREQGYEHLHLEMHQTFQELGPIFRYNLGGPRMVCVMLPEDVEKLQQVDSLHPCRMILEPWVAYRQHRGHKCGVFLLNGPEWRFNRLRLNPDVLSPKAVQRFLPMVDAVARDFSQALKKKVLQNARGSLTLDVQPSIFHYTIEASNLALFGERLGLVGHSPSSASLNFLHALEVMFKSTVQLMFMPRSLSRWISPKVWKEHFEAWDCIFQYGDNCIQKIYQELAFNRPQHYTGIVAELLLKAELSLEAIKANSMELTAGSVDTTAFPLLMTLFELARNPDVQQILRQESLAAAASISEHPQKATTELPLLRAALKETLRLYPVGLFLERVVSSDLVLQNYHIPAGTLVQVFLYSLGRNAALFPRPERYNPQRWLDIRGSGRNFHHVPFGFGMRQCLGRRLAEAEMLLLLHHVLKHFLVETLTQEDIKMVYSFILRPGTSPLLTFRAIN

In order of rising IC50:
1. Cc1ccccc1-c1cnnc(N2CCN(CC(=O)Nc3cccnc3)CC2)n1 [Example 86]  0.5 nM
2. Cc1ccccc1-c1cnnc(N2CCC(CCCO)CC2)n1 [Example 183]  0.7 nM
3. Cc1nc[nH]c1CN1CCC(NC(=O)CN2CCN(c3nncc(-c4ccc(Cl)cc4)n3)CC2)CC1 [Example 154]  1.1 nM
4. Cn1c(-c2cnnc(N3CCOCC3)n2)cc2ccccc21 [Example 211, 5-(1-methyl-1H-indol-2-yl)-3-morpholino-1,2,4-triazine]  2.4 nM
5. CC(C)NC(=O)CN1CCN(c2nncc(-c3ccc(C(F)(F)F)cc3)n2)CC1 [Example 221]  2.4 nM
6. CNC(=O)Cn1cc(NC(=O)CN2CCN(c3nncc(-c4ccc(Cl)cc4)n3)CC2)cn1 [Example 81]  2.7 nM
7. CC(C)NC(=O)CN1CCN(c2nncc(-c3ccc4c(c3)CCO4)n2)CC1 [Example 219]  3.1 nM
8. CN(C)C(=O)Cn1cc(NC(=O)CN2CCN(c3nncc(-c4ccc(Cl)cc4)n3)CC2)cn1 [Example 76]  4.5 nM
9. CNC(=O)Cn1cc(NC(=O)CN2CCN(c3nncc(-c4ccc(F)cc4)n3)CC2)cn1 [Example 80]  4.5 nM
10. CNC(=O)Cn1cc(NC(=O)CN2CCN(c3nncc(-c4ccc(C)cc4)n3)CC2)cn1 [Example 79]  4.5 nM
11. Clc1ccc(-c2cnnc(N3CCN(C4CCOCC4)CC3)n2)cc1 [Example 178]  5 nM
12. Cc1ccccc1-c1cnnc(N2CC[C@@H](Oc3ccncc3)C2)n1 [Example 188]  6 nM
13. CN(C)C(=O)Cn1cc(NC(=O)CN2CCN(c3nncc(-c4ccc(F)cc4)n3)CC2)cn1 [Example 71]  6.1 nM
14. C[C@H]1COCCC1NC(=O)CN1CCN(c2nncc(-c3ccc(Cl)cc3)n2)CC1 (stereo partly drawn) [compound 161]  6.1 nM
15. CC(C)NC(=O)NC1CCN(c2nncc(-c3ccc(F)cc3)n2)CC1 [Example 180]  6.1 nM
16. Cc1ccc(-c2cnnc(N3CCN(CC(=O)N[C@H]4CC[C@H](S(C)(=O)=O)CC4)CC3)n2)cc1 [Example 50]  6.3 nM
17. CN1CC[C@H](NC(=O)CN2CCN(c3nncc(-c4ccc(Cl)cc4)n3)CC2)CC1=O [Example 54]  7.2 nM
18. CC(C)CC(=O)NN1CCN(c2nncc(-c3ccc(Cl)cc3)n2)CC1 [Example 251, 5-(4-chlorophenyl)-3-[4-[(3-methylbutanoyl)amino]piperazin-1-yl]-1,2,4-triazine]  7.5 nM
19. Cc1ccc(-c2cnnc(N3CCN(CC(=O)Nc4cnn(CC(=O)N(C)C)c4)CC3)n2)cc1 [Example 75]  7.6 nM
20. CN(C)[C@H]1CC[C@H](NC(=O)CN2CCN(c3nncc(-c4cc(F)ccc4F)n3)CC2)CC1 [Example 83]  7.6 nM
21. CN1CCO[C@@H](CNC(=O)CN2CCN(c3nncc(-c4ccc(F)cc4)n3)CC2)C1 [Example 159a, 5-(4-fluorophenyl)-3-[4-[[(4-methylmorpholyn-2-yl)methyl]carbamoylmethyl]piperazin-1-yl]-1,2,4-triazine]  7.7 nM
22. CN(C)[C@H]1CC[C@H](NC(=O)CN2CCN(c3nncc(-c4ccc(Cl)cc4)n3)CC2)CC1 [Example 18]  7.9 nM
23. O=C(CN1CCN(c2nncc(-c3ccc(F)cc3)n2)CC1)N[C@H]1CC[C@H](N2CCOCC2)CC1 [Example 28]  8.4 nM
24. O=C1CN([C@H]2CC[C@H](NC(=O)CN3CCN(c4nncc(-c5ccc(F)cc5)n4)CC3)CC2)CCN1 [Example 26]  8.5 nM
25. CNC(=O)CO[C@H]1CC[C@H](NC(=O)CN2CCN(c3nncc(-c4ccc(F)cc4)n3)CC2)CC1 [Example 55]  8.7 nM
26. CC(=O)N[C@H]1CC[C@H](NC(=O)CN2CCN(c3nncc(-c4ccc(C)cc4)n3)CC2)CC1 [Example 48]  9 nM
27. CC(C)NC(=O)CN1CCN(c2nncc(-c3cccc4c3COCC4)n2)CC1 [Example 218]  9.8 nM
28. CNC(=O)CN1CCC(NC(=O)CN2CCN(c3nncc(-c4ccc(C)cc4)n3)CC2)CC1 [Example 85]  9.9 nM
29. Cc1ccc(-c2cnnc(N3CCN(CC(=O)NC4CCN(CCNS(C)(=O)=O)CC4)CC3)n2)cc1 [Example 62]  10 nM
30. O=C(CN1CCN(c2nncc(-c3ccc(F)cc3)n2)CC1)NCCN1CCS(=O)(=O)CC1 [Example 47]  11 nM
31. O=C(CN1CCN(c2nncc(-c3ccc(F)cc3)n2)CC1)NC1CN(C(=O)C2(O)CC2)C1 [Example 141]  11 nM
32. Cc1ccccc1-c1cnnc(C2CCCN(c3ncccn3)C2)n1 (stereo not drawn) [Example 244, 3-[1-(pyrimidine-2-yl)-piperidin-3-yl]-5-(o-tolyl)-1,2,4-triazine]  11 nM
33. CN1CCNC(=O)C12CCC(NC(=O)CN1CCN(c3nncc(-c4ccc(F)cc4)n3)CC1)CC2 (stereo not drawn) [Example 82]  12 nM
34. O=C1NCC2(CCN(c3nncc(-c4ccc5ccccc5c4)n3)CC2)O1 [Example 199]  12 nM
35. O=C(CN1CCN(c2nncc(-c3ccc(Cl)cc3)n2)CC1)NC1CCS(=O)(=O)CC1 [Example 27]  13 nM
36. Clc1ccc(CNc2cnnc(N3CCOCC3)n2)cc1 [Example 257, 5-(4-chlorobenzyl) amino-3-morpholino-1,2,4-triazine]  13 nM
37. CN(C)[C@@H]1CCC[C@H](NC(=O)CN2CCN(c3nncc(-c4ccc(F)cc4)n3)CC2)C1 [compound 160]  13 nM
38. O=C(CN1CCN(c2nncc(-c3ccc(C(F)(F)F)cc3)n2)CC1)NC1CC2COCC(C1)C2O (stereo not drawn) [Example 157a, 3-[4-[[(7-exo-9-endo)-9-hydroxy-3-oxabicyclo[3.3.1]nonan-7-yl]carbamoylmethyl]piperazin-1-yl]-5-(4-trifluoromethylphenyl)-1,2,4-triazine]  14 nM
39. O=C(CN1CCN(c2nncc(-c3ccc(F)cc3)n2)CC1)NC1CCN(CC(=O)N2CCOCC2)CC1 [Example 38]  14 nM
40. CN(C)[C@H]1CC[C@H](NC(=O)C(O)C2CCN(c3nncc(-c4ccc(F)cc4)n3)CC2)CC1 (relative stereo) [Example 252, 3-[4-[[[trans-4-(dimethylamino)cyclohexyl]carbamoyl]hydroxymethyl]piperidino]-5-(4-fluorophenyl)-1,2,4-triazine]  15 nM
41. CC(C)[C@@H](CO)NC(=O)CN1CCN(c2nncc(-c3ccc(C(F)(F)F)cc3)n2)CC1 [Example 16]  16 nM
42. O=C(CN1CCN(c2nncc(-c3ccc(F)cc3)n2)CC1)NC1CCN(CC2=NCCN2)CC1 [Example 151, 3-[4-[[1-[(4,5-dihydro-1H-imidazol-2-yl)methyl]piperidin-4-yl]carbamoylmethyl]piperazin-1-yl]-5-(4-fluorophenyl)-1,2,4-triazine]  16 nM
43. CO[C@H]1CC[C@H](NC(=O)CN2CCN(c3nncc(-c4ccc5c(cnn5C)c4)n3)CC2)CC1 [Example 19]  17 nM
44. CNC(=O)CN1CCC(NC(=O)CN2CCN(c3nncc(-c4ccc(F)cc4)n3)CC2)CC1 [Example 44]  17 nM
45. Cc1nc[nH]c1CN1CCC(NC(=O)CN2CCN(c3nncc(-c4ccc(F)cc4)n3)CC2)CC1 [Example 153]  18 nM
46. Cc1ncc(CN2CCC(NC(=O)CN3CCN(c4nncc(-c5ccc(F)cc5)n4)CC3)CC2)[nH]1 [Example 147]  18 nM
47. NC(=O)N1CCC(O)(CNC(=O)CN2CCN(c3nncc(-c4ccc(Cl)cc4)n3)CC2)CC1 [Example 59]  19 nM
48. CC(C)NC(=O)CN1CCN(c2nncc(-c3ccc4ncsc4c3)n2)CC1 [Example 220]  20 nM
49. c1nnc(N2CCOCC2)nc1CC1CCCCC1 [Example 233, 5-cyclohexylmethyl-3-morpholino-1,2,4-triazine]  20 nM
50. Cc1ccccc1-c1cnnc(N2CCN(c3ccc(F)cc3)CC2)n1 [Example 170, 3-[4-(4-fluorophenyl)piperazin-1-yl]-5-(o-tolyl)-1,2,4-triazine]  23 nM
51. Cc1ccccc1-c1cnnc(N(Cc2ccccn2)S(C)(=O)=O)n1 [Example 236, 3-[N-(methylsulfonyl)-N-(2-pyridylmethyl)amino]-5-(o-tolyl)-1,2,4-triazine]  23 nM
52. CN1CC[C@H](NC(=O)CN2CCN(c3nncc(-c4ccc5c(c4)COC5)n3)CC2)CC1=O [Example 84]  25 nM
53. CC(C)NC(=O)CN1CCN(c2nncc(-c3ccc4c(c3)CNN4C)n2)CC1 [Example 222]  26 nM
54. c1ccc(COc2cnnc(N3CCOCC3)n2)cc1 [Example 256, 5-benzyloxy-3-morpholino-1,2,4-triazine]  26 nM
55. CC(C)NC(=O)CN1CCN(c2nncc(-c3ccc(C#N)nc3)n2)CC1 [Example 215, 5-(2-cyano-5-pyridyl)-3-[4-(isopropylcarbamoylmethyl)piperazin-1-yl]-1,2,4-triazine]  29 nM
56. CN(CCCS(C)(=O)=O)c1nncc(-c2ccc3ccccc3c2)n1 [Example 192]  38 nM
57. CC(=O)N1CCC(CNc2nncc(-c3ccc4ccccc4c3)n2)CC1 [Example 196]  67 nM
